Target: T1, AMAN-2 (F58H1.1; Golgi α-mannosidase II) (Caenorhabditis elegans, UniProt Q2PJ74)
T1 sequence (Q2PJ74 125-1145): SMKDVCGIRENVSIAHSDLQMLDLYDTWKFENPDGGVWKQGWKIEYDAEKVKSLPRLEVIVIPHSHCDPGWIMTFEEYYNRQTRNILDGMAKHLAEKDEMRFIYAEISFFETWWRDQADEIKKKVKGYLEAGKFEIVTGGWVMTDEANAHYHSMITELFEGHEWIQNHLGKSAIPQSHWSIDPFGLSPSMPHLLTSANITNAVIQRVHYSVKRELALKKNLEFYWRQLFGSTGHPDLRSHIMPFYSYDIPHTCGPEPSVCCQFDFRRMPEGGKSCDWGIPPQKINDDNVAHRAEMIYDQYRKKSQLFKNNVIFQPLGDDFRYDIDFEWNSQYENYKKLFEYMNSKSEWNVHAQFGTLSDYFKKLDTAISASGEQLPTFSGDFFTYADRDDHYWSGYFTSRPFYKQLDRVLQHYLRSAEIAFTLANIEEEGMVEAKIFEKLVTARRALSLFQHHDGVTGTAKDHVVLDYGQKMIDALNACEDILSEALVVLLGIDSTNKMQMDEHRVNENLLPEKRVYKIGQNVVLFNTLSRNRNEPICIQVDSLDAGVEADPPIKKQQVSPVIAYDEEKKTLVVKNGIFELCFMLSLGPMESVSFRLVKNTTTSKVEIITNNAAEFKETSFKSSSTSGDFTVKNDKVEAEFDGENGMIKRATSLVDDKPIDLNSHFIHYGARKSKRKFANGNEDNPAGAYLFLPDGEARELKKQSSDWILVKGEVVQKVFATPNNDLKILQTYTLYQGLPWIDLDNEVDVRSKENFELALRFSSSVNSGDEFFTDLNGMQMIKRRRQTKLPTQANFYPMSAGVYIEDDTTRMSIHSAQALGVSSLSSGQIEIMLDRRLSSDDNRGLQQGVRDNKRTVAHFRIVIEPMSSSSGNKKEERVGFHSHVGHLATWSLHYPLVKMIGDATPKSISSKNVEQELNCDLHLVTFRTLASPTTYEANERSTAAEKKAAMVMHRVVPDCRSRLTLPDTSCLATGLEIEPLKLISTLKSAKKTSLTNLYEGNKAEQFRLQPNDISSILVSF
Experiment: inhibition of p-nitrophenyl-α-mannoside hydrolysis, A405
Type: biochemical
Conditions: read-out: % inhibition at 1 mM

## OC[C@H]1NC[C@@H](O)[C@@H](O)[C@@H]1O [deoxymannojirimycin]
  inhibition at 1000 µM: ~45%

From article PMC2848328 (The Journal of biological chemistry, 2006)
